From article PMC11006503, “New Tin (IV) and Organotin (IV) Complexes with a Hybrid Thiosemicarbazone/Hydrazone Ligand: Synthesis, Crystal Structure, and Antiproliferative Activity” (Bioinorganic Chemistry and Applications, 2024) come the findings set out here.

What all share (assay type): cell-based, human
Data set [1] relates to MDA-MB-231 cells. Put plainly: Mitochondrial membrane potential by JC1 staining (fluorescence microscopy and flow cytometry). The settings on record: for cellular population with increase in JC1 green fluorescence intensity (flow cytometry): control 3.93%. As to the method:
The changes in mitochondrial membrane permeability were determined by JC1 (molecular probes). MDA-MB-231 cells were treated with compound 3 (0.25 µM, 0.5 µM, and 1 µM) for the indicated time period, harvested, washed twice in 1 × PBS, resuspended in PBS supplemented with JC1 dye (3 µM final concentration), and incubated for 15 min in the dark at 37°C and flow cytometric analysis was immediately performed using a FACSVerse instrument (BD) or images were captured with fluorescent microscope (Leica).
A general note: In flow cytometry, cells or beads pass a laser one at a time.

In data set [2] the test system is MDA-MB-231 cells. In words: Annexin V-FITC/PI staining apoptosis assay (flow cytometry). The settings on record: for annexin-V-FITC+/PI− (early apoptotic) and annexin V-FITC+/PI+ (late apoptotic) cell population: control 0.01%. The method, then: Induction of apoptosis was quantified via flow cytometric analysis of control ([…]) and cells treated with complex 3 (0.25 µM, 0.5 µM, and 1 µM) that were stained with annexin V-FITC/PI [50], using the Annexin V-FITC apoptosis detection kit according to the manufacturer's protocol (BD Bioscience). Post treatment cells were harvested with 1 × trypsin and washed in ice 1 × PBS followed by resuspension in 100 µL of 1 × binding buffer solution supplied within the kit. Finally, cells were incubated with 5 μL of annexin V-FITC and 5 μL of PI for 15 min at room temperature in the dark before acquiring data using BD FACSVerse flow cytometer (BD Biosciences, San Jose, CA). Annexin V/FITC positive cells were regarded as apoptotic cells analyzed using Cell Quest software (BD Biosciences).

Data set [3] concerns WI-38 normal lung fibroblast cell line. In words: MTT cell proliferation assay. The settings on record: for IC50: normal cell line, MTT, mean ± SEM. As to the method:
(§1) Four cancerous cell lines (human triple negative breast cancer cell line MDA-MB-231, human cervical cancer cell line HeLa, human prostate cancer cell line PC3, and human liver cancer cell line HepG2) and the human normal lung fibroblast cell line, WI-38, were obtained from the central cell repository of National Centre for Cell Science (NCCS), Pune. The cell lines were cultured in a T25 flask with Dulbecco's modified Eagle medium (DMEM), supplemented with 10% foetal bovine serum, nonessential amino acids, 1 mM sodium pyruvate, 2 mM L-glutamine, 100 mg/L streptomycin, […] penicillin, and 50 mg/L gentamycin in a 37°C humidified incubator containing 5% CO2. […] As DMSO has been used to prepare the different concentrations of the compounds, we have added 0.5% DMSO in the control setup. After the incubation period, media was discarded from the 96-well plates and washed with 1 × PBS solution twice. Then, MTT (100 µL; 0.5 mg/mL) was added to each well and incubated in a humidified incubator containing 5% CO2 at 37°C for 4 h. After discarding the supernatant, the purple-colored formazan crystals formed in the wells were dissolved with 100 μL DMSO per well and the absorbance was estimated at 490 nm using a microplate reader. The experiments were repeated three times, and the cell viability was expressed as a percentage of the control experimental setup. […] For all the MTT assays, three fully independent experiments have been performed, and each experiment has been conducted with biological triplicate samples.
(Formazan colour is commonly taken as a measure of viable cells.)

Data set [4] concerns PC3. Put plainly: MTT cell proliferation assay. The settings on record: for IC50: MTT, mean ± SEM. The method, then:
as §1

Data set [5] relates to HepG2. In words: MTT cell proliferation assay. The settings on record: for IC50: MTT, mean ± SEM. As to the method: as §1
Data set [6] deals with MDA-MB-231. In words: MTT cell proliferation assay. The settings on record: for IC50: MTT, mean ± SEM, read-out: IC50 MDA-MB231. As to the method:
as §1

The subject of data set [7] is HeLa. In words: MTT cell proliferation assay. The note with it: 24 h; for IC50: MTT, mean ± SEM. The method, then: as §1
The test system of data set [8] is MDA-MB-231 cells. Put plainly: Cellular ROS measurement using DCFDA (fluorescence microscopy and flow cytometry). As to the method: To measure the production of intercellular reactive oxygen species (ROS) produced by treatment with complex 3, the DCFDA method was used. MDA-MB-231 cells were seeded in a 6-well plate and treated with complex 3 (0.25 µM, 0.5 µM, and 1 µM) for 24 h using arsenic as a positive control agent and NAC as negative control. Post treatment, the media was discarded and incubated with 10 µM H2DCFDA for 30 min at 37°C. For fluorescence imaging, cells incubated with H2DCFDA were washed, resuspended in 1 × PBS, and directly imaged under a fluorescence microscope (Leica). For flow cytometric analysis, cells were then trypsinized, washed with 1 × PBS, and collected in centrifuge tubes. DCF fluorescence was measured using BD FACSVerse flow cytometer (BD Biosciences) and analyzed using Cell Quest software (BD Biosciences).

Data set [9] relates to MDA-MB-231 cells. Put plainly: Cell cycle profiling by propidium iodide staining (flow cytometry). The settings on record: 1.0 µM, 24 h, mean ± SEM. The method, then:
MDA-MB-231 cells were seeded at a density of 1 × 10^6 cells/mL in each Petri dish for 24 h. Thereafter, the cells were treated with increasing concentration of complex 3 (0.25 µM, 0.5 µM, and 1 µM) for 24 h and 0.5% DMSO was added in the control setup. Post treatment, cells were harvested into single cell suspension and fixed by 75% ethanol for 24 h. at −20°C. After centrifugation, the cells pellets were resuspended in 1 × PBS followed by RNaseA (20 μM) treatment for 2 h at 37°C. Finally, propidium iodide was added and incubated at room temperature for 20 min. Subsequently, the samples were measured using BD FACSVerse flow cytometer (BD Biosciences, San Jose, CA) and analyzed using BD FACS DIVA software.

For orientation: IC50 means the point on the concentration scale where inhibition reaches its midpoint.

Entries after “also recorded” stand apart in the source; their conditions may differ. Read-outs that look alike come from different tables or passages of the source.

Take `N.N.[Cl][Pt][Cl]` [Cisplatin, cisplatin, reference compound]: the “JC1 aggregate/JC1 monomer fluorescence intensity ratio (fluorescence microscopy)” value in data set [1] (8 µM) is reported as 0.25 ± 0.06. Further, the “early apoptotic cell population (LR quadrant)” value in data set [2] (8 µM, positive control) was determined as 44.46%. Further, in data set [2] (8 µM, positive control), the “late apoptotic cell population (UR quadrant)” value was determined as 18.52%. Further, the IC50 in data set [3] (24 h) stood at 20.6 ± 1.52 µM; in [4] (24 h), 5.36 ± 1.24 µM; in [5] (24 h), 11.5 ± 2.06 µM; in data set [6] (24 h) it was 8.25 ± 1.64 µM; in data set [7], 3.26 ± 0.23 µM.

`CC(=N\NC(=O)c1ccncc1)/C(C)=N/NC(N)=S` [L ^ 1 H 2, Diacetyl-2-(Thiosemicarbazone)-3-(Isonicotinichydrazone)]: the half-maximal inhibitory concentration (IC50) in [3] (Homo sapiens, WI-38, 24 h) is 10.8 ± 0.96 µM; in [4] (Homo sapiens, PC-3, 24 h), 4.86 ± 0.75 µM; in data set [5] (Homo sapiens, HepG2, 24 h), 5.14 ± 0.52 µM; in data set [6] (Homo sapiens, MDA-MB-231, 24 h), 2.42 ± 0.33 µM; in data set [7] (Homo sapiens, HeLa) it was 1.06 ± 0.21 µM.

For the compound `CC(=N\NC(=O)c1ccncc1)/C(C)=N/NC(N)=S` [[L ^ 1 H 3 ]Cl] [Diacetyl-2-(Thiosemicarbazone)-3-(Isonicotinichydrazonium) Chloride], the IC50 in [3] (24 h) was found to be 14.1 ± 0.48 µM; in [4] (24 h), 3.49 ± 0.73 µM; in data set [5] (24 h) it was 6.27 ± 0.98 µM; in data set [6] (24 h) it was 2.48 ± 0.47 µM; in data set [7] it was 1.49 ± 0.46 µM.

As for `[As]` [arsenic, reference compound], the “mean fluorescence intensity (MFI), fold change in comparison with the control (H2DCFDA, flow cytometry)” value in [8] (1 µM, 24 h) was 4.91 ± 0.05 fold. In data set [8] (positive control, concentration not given), the “fold increase of green fluorescence intensity (H2DCFDA, fluorescence microscopy)” value was 4.28 ± 0.09 fold.

As to `CC1=[N+]2N=C(N)[S][Sn-2]23([CH3])([CH3])[O]C(c2ccncc2)=N[N+]3=C1C` [complex 1, [SnMe2L^1]n], the half-maximal inhibitory concentration (IC50) amounted to 15.6 ± 0.73 µM in data set [3] (24 h); 2.76 ± 0.52 µM in data set [4] (24 h); 4.97 ± 0.76 µM in data set [5] (24 h); 3.54 ± 0.34 µM in data set [6] (24 h); 2.22 ± 0.54 µM in data set [7].

For `CC1=[N+]2N=C(N)[S][Sn-2]23([c]2ccccc2)([c]2ccccc2)[O]C(c2ccncc2)=N[N+]3=C1C` [complex 3, [SnPh2L^1]n], the “JC1 aggregate/JC1 monomer fluorescence intensity ratio (fluorescence microscopy)” value in data set [1] (0.25 µM, 24 h) was found to be 1.36 ± 0.78; in data set [1] (1 µM, 24 h) it was 0.27 ± 0.13. Moreover, the “cellular population with increase in JC1 green fluorescence intensity (flow cytometry)” value was 37.47% in data set [1] (0.25 µM, 24 h); 52.22% in [1] (0.5 µM, 24 h); 74.51% in data set [1] (1 µM, 24 h). In addition, the “early apoptotic cell population (LR quadrant)” value in [2] (0.25 µM, 24 h) is 15.99%; in data set [2] (0.5 µM, 24 h) it was 36.25%; in data set [2] (1 µM, 24 h) it was 32.32%. Further, the “late apoptotic cell population (UR quadrant)” value in data set [2] (0.25 µM, 24 h) was 5.24%; in data set [2] (0.5 µM, 24 h), 21.56%; in data set [2] (1 µM, 24 h), 34.15%. The “annexin-V-FITC+/PI− (early apoptotic) and annexin V-FITC+/PI+ (late apoptotic) cell population” value in data set [2] (0.25 µM, 24 h) was 21.23%; in [2] (0.5 µM, 24 h), 57.81%; in [2] (1 µM, 24 h) it was 66.47%. The “necrotic cell population zone” value in data set [2] (0.25, 0.5 and 1 µM, 24 h) is on record as “No significant cell population”. In [9], the “G2/M cell population (G2/M arrest)” value was 56.07%. For the same compound, the “Percentage of cell viability WI-38” value in [3] (0.25 µM, 24 h) is given as 98.36%; in data set [3] (0.5 µM, 24 h), 95.32%; in [3] (1 µM, 24 h) it was 80.17%; in data set [3] (2 µM, 24 h) it was 76.21%; in data set [3] (5 µM, 24 h), 70.24%. Moreover, the half-maximal inhibitory concentration (IC50) stood at 15.7 ± 0.28 µM in data set [3] (24 h), 1.97 ± 0.24 µM in data set [4] (24 h), 1.59 ± 0.17 µM in [5] (24 h) and 0.51 ± 0.13 µM in data set [6] (24 h). In addition, the “Percentage of cell viability PC3” value is 82.17% in data set [4] (0.25 µM, 24 h); 76.09% in data set [4] (0.5 µM, 24 h); 60.16% in [4] (1 µM, 24 h); 48.24% in data set [4] (2 µM, 24 h); 35.73% in data set [4] (5 µM, 24 h). In addition, the “Percentage of cell viability HepG2” value in [5] (0.25 µM, 24 h) is on record as 80.36%; in [5] (0.5 µM, 24 h), 70.36%; in data set [5] (1 µM, 24 h), 58.39%; in [5] (2 µM, 24 h), 45.27%; in data set [5] (5 µM, 24 h), 30.68%. Also, the “Percentage of cell viability MDA-MB 231” value in data set [6] (0.25 µM, 24 h) is reported as 65.43%; in data set [6] (0.5 µM, 24 h), 50.06%; in data set [6] (1 µM, 24 h), 28.63%; in data set [6] (2 µM, 24 h), 20.19%; in data set [6] (5 µM, 24 h) it was 18.37%. In addition, the “Percentage of cell viability Hela” value in data set [7] (0.25 µM) was determined as 70%; in data set [7] (0.5 µM) it was 46.24%; in data set [7] (1 µM), 30.21%; in [7] (2 µM), 25.19%; in [7] (5 µM), 20.16%. The “mean fluorescence intensity (MFI), fold change in comparison with the control (H2DCFDA, flow cytometry)” value in data set [8] (0.25 µM, 24 h) came out at 1.47 ± 0.17 fold; in data set [8] (0.5 µM, 24 h) it was 2.58 ± 0.23 fold; in data set [8] (1 µM, 24 h), 4.73 ± 0.14 fold. For the same compound, in [8] (1 µM, 10 mM NAC pretreatment, compared to complex 3 alone), the “ROS generation / MFI in cells pretreated with N-acetylcysteine (NAC)” value was “reduce the generation of ROS; also recorded: decrease in the MFI value”. Further, the “fold increase in fluorescence intensity in comparison to control (H2DCFDA, fluorescence microscopy)” value in data set [8] (1 µM, 24 h) is given as 3.57 ± 0.08 fold.
